Some test systems named below: HOP-92 NSCLC; NCI-H23 lung; EKVX NSCLC; SF-539 CNS; IGROV1 ovarian; RPMI-8226 leukemia; SK-MEL-2 melanoma; HT29 colon; KM12 colon; HCT-15 colon; SW-620 colon.
Common to all, as to experiment: NCI-60 cell line screen, 48 h

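Exposure lasted 48 hours, with cells grown in 96-well plates and compounds tested at five concentrations. GI50: concentration for 50% inhibition of growth. The concentration for full growth arrest is given as TGI.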 Bounds are passed on as bounds.

`N#CN=[N+]([O-])c1ccc(C(=O)O)cc1`: the TGI in the assay on HOP-92 NSCLC is 40.4 µM; with NCI-H23 lung, 33.7 µM; in the assay with EKVX NSCLC it was 35.8 µM; in the assay with SF-539 CNS, 32.4 µM; with IGROV1 ovarian, above 100 µM; in the assay on RPMI-8226 leukemia it was 35.3 µM. Further, the TGI with SK-MEL-2 melanoma was 33.6 µM; in the assay with HT29 colon it was 46.3 µM; in the assay on KM12 colon it was above 100 µM; with HCT-15 colon, 34.1 µM; with SW-620 colon it was 36.6 µM.
Turning to `CSc1nc(NC2OCC(O)C(O)C2O)c(N)c(=O)[nH]1` (configuration not stated), the TGI in the assay with HOP-92 NSCLC, in the assay with NCI-H23 lung, in the assay on EKVX NSCLC, with SF-539 CNS, with IGROV1 ovarian and with RPMI-8226 leukemia was above 100 µM in each case. The TGI in the assay on SK-MEL-2 melanoma, in the assay on HT29 colon, with KM12 colon, in the assay on HCT-15 colon and in the assay with SW-620 colon was above 100 µM each time.
With `Cc1cc2c(cc1C)OC(=O)CC2`, the TGI in the assay on HOP-92 NSCLC, with NCI-H23 lung, with EKVX NSCLC, in the assay with SF-539 CNS, in the assay with IGROV1 ovarian and in the assay on RPMI-8226 leukemia was above 100 µM throughout. Also, the TGI in the assay with SK-MEL-2 melanoma, in the assay with HT29 colon, with KM12 colon and in the assay on SW-620 colon was above 100 µM each time.
Consider `NCCCOc1ccc([N+](=O)[O-])cc1Cl`, for which the TGI with HOP-92 NSCLC, in the assay on NCI-H23 lung, in the assay on SF-539 CNS, in the assay on IGROV1 ovarian, in the assay on RPMI-8226 leukemia and in the assay with SK-MEL-2 melanoma was above 100 µM in each case. Also, the TGI with HT29 colon, with KM12 colon, in the assay on HCT-15 colon and in the assay with SW-620 colon was above 100 µM in each case.
As for `CC(=O)c1ccc2c(c1)c1c(C)c3c[n+](C)ccc3c(C)c1n2C`, the TGI was 69.2 µM in the assay on HOP-92 NSCLC; above 100 µM in the assay on EKVX NSCLC; 13.9 µM with SF-539 CNS; above 100 µM in the assay with IGROV1 ovarian; 30.5 µM in the assay with RPMI-8226 leukemia; 22.6 µM with SK-MEL-2 melanoma. The TGI was above 100 µM in the assay with HT29 colon, above 100 µM in the assay on KM12 colon, above 100 µM in the assay on HCT-15 colon and above 85.4 µM with SW-620 colon.
With `C/C(N=NS(=O)(=O)c1ccccc1)=C1\C=CC=CN1O`, the TGI in the assay with HOP-92 NSCLC, in the assay with NCI-H23 lung, in the assay with EKVX NSCLC, in the assay on SF-539 CNS, with IGROV1 ovarian and in the assay on RPMI-8226 leukemia was above 100 µM each time. Also, the TGI in the assay with HT29 colon, in the assay with KM12 colon, in the assay with HCT-15 colon and in the assay with SW-620 colon was above 100 µM throughout.
Regarding `Cc1cc(C)n(-c2nsc3ccccc23)n1`, the TGI in the assay on HOP-92 NSCLC, in the assay on NCI-H23 lung, in the assay on EKVX NSCLC, with SF-539 CNS, in the assay on IGROV1 ovarian and in the assay on RPMI-8226 leukemia was above 100 µM each time. The TGI in the assay on SK-MEL-2 melanoma, in the assay on HT29 colon, with KM12 colon, in the assay with HCT-15 colon and in the assay on SW-620 colon was above 100 µM in each case.
Take `CC(=O)OCC1=C(C(=O)O)N2C(=O)C(NC(=O)CSc3ccncc3)C2SC1` (configuration not stated): the TGI in the assay with HOP-92 NSCLC, in the assay with NCI-H23 lung, with EKVX NSCLC, in the assay on SF-539 CNS, in the assay on IGROV1 ovarian and in the assay on RPMI-8226 leukemia was above 100 µM in each case. The TGI in the assay with SK-MEL-2 melanoma, in the assay on HT29 colon, in the assay on KM12 colon, in the assay with HCT-15 colon and in the assay with SW-620 colon was above 100 µM throughout.
Consider `CCOC(=O)NC(Nc1ncccn1)(C(=O)OCC)C(F)(F)F` (configuration not stated), for which the TGI with HOP-92 NSCLC, with NCI-H23 lung, in the assay on EKVX NSCLC, in the assay with SF-539 CNS, in the assay on IGROV1 ovarian and with RPMI-8226 leukemia was above 100 µM each time. In addition, the TGI in the assay with SK-MEL-2 melanoma, with HT29 colon, in the assay on KM12 colon, in the assay on HCT-15 colon and in the assay on SW-620 colon was above 100 µM in each case.
As for `CCN(CC)CCNc1ccc2nnn3c4ccc(C)cc4c(=O)c1c23`, the TGI turned out to be 20.7 µM with HOP-92 NSCLC; 24.7 µM in the assay on NCI-H23 lung; 18.7 µM in the assay with SF-539 CNS; 26.4 µM in the assay with IGROV1 ovarian; 21.6 µM in the assay on RPMI-8226 leukemia; 27.1 µM in the assay with SK-MEL-2 melanoma. The TGI in the assay with HT29 colon worked out at 16.1 µM; in the assay with KM12 colon, 16.9 µM; in the assay with HCT-15 colon, 22.4 µM; in the assay with SW-620 colon, 17.2 µM.
Consider `O=C1CSC(=S)N1`, for which the TGI in the assay with HOP-92 NSCLC, in the assay with NCI-H23 lung, with EKVX NSCLC, in the assay on SF-539 CNS, with IGROV1 ovarian and in the assay with RPMI-8226 leukemia was above 100 µM each time. Besides, the TGI in the assay on SK-MEL-2 melanoma, in the assay on KM12 colon, in the assay on HCT-15 colon and with SW-620 colon was above 100 µM in each case.
Take `O=C1NC2=C(CCCC/C2=N\O)C12CCCCC2`: the TGI with NCI-H23 lung, in the assay on EKVX NSCLC, in the assay on SF-539 CNS, with IGROV1 ovarian, in the assay with HT29 colon and in the assay with KM12 colon was above 100 µM throughout. Besides, the TGI with HCT-15 colon and in the assay with SW-620 colon was above 100 µM in each case.
On to `Fc1ccc(C2CC(c3cccc(Nc4ccncc4)c3)=NN2c2ccc(Cl)cc2)cc1` (configuration not stated), for which the GI50 with NCI-H23 lung is 1.84 µM; in the assay on EKVX NSCLC, 2.11 µM; in the assay on SF-539 CNS it was 1.65 µM; with IGROV1 ovarian, 1.78 µM; in the assay on SK-MEL-2 melanoma, 1.89 µM; in the assay with HT29 colon it was 1.99 µM. The values for the GI50 in the assay on KM12 colon, in the assay on HCT-15 colon and with SW-620 colon were 1.68 µM, 1.91 µM and 1.64 µM, respectively. Moreover, the TGI in the assay on NCI-H23 lung amounted to 3.62 µM; in the assay on EKVX NSCLC it was 6.33 µM; in the assay with SF-539 CNS, 3.07 µM; in the assay on IGROV1 ovarian it was 3.37 µM; with SK-MEL-2 melanoma it was 3.73 µM; with HT29 colon, 4.44 µM. The TGI was determined as 3.33 µM in the assay on KM12 colon, 3.82 µM in the assay on HCT-15 colon and 3.09 µM in the assay with SW-620 colon.
As to `Cc1ccc2c(c1)C(=O)N(N(C)C)CC(=O)N2`, the TGI in the assay with HOP-92 NSCLC, in the assay on NCI-H23 lung, in the assay on EKVX NSCLC, in the assay with SF-539 CNS, in the assay on IGROV1 ovarian and in the assay with RPMI-8226 leukemia was above 100 µM each time. The TGI with SK-MEL-2 melanoma, in the assay with HT29 colon, in the assay on KM12 colon, in the assay on HCT-15 colon and in the assay with SW-620 colon was above 100 µM throughout.

The values above are taken from PubChem BioAssay (NCI).
